Measured values taken from patent US20240409935A1, “Atg8ylation coordinates stress granule formation and mTOR inactivation in response to lysosomal damage” (priority 2023, published 2024).

Assays:
[1] = test system: G3BP1 puncta in BMM (bone-marrow-derived macrophages); assay: HCM quantification of G3BP1 puncta in BMM; format: cell-based, murine; details: 2 mM LLOMe for 2 h
Description: Three groups of proteins are labeled (ESCRT components in green, autophagy factors in blue and stress granule components in purple). […] The dotted orange line indicates the significance cut-off (P<0.05). […] The significant increased proteins in LysoIP LC/MS/MS were analyzed by STRING functional protein association networks. […] Strength, Log 10(observed/expected) describes how large the enrichment effect is. […] TMEM192-2×FLAG, control. […] U20S cells Were treated with Earle's Balanced Salt Solution (EBSS), 4 mM LOMe, 2 mM LLOMe, 200 μM GPN, or 400 μg/mL silica for 30 min. White masks, algorithm-defined cell boundaries (primary objects); red masks, computer-identified G3BP1 puncta (target objects). […] The level of phosphorylation of eIF2α (S51) is quantified based on three independent experiments. […] The level of ATF4 and phosphorylation of eIF2α (S51) and 4EBP1 (S65) are quantified based on three independent experiments. […]
The inventors tested whether lysosomal damage induces SG formation using the conventional marker of SGs G3BP1 (Jain et al., 2016; Kedersha et al., 2005; Yang et al., 2020). […] For unbiased quantification, the inventors employed high content microscopy (HCM), which depends on epifluorescence mode to capture all cellular profiles in a volume. […] In all cell lines and primary cells tested, SG formation was observed upon lysosomal damage and quantified by HCM.

NUFIP2 = assay: Confocal microscopy of NUFIP2 localisation in Huh7 cells; format: cell-based, human; details: 2 mM LLOMe for 30 min
Description: Huh7 cells Were treated with 2 mM LLOMe for 30 min and stained for endogenous G3BP1 and NUFIP2. Scale bar, 5 μm. […] The sequence in red (SEQ ID NO: 1), predicted NLS in NUFIP2, was deleted for generating NUFIP2ΔNLS. […] FIG. 4SG show the quantification by HCM of overlaps between mTOR and LAMP2 in Gal8WT^HeLa or Gal8KO^HeLa cells treated with 2 mM LLOMe for 30 min. White masks, algorithm-defined cell boundaries. Yellow masks, computer-identified overlap of mTOR and LAMP2. […] Red masks, computer-identified G3BP1 puncta. Ctrl, control (untreated cells). Data, means±SEM; HCM: n≥3 (each experiment: 500 valid primary objects/cells per Well, ≥5 Well s/sample). †p≥0.05 (not significant), **p<0.01, ANOVA. See also FIG. 3 and FIG. 4.

ATF4 = assay: Immunoblot analysis of ATF4 in U2OS cells; format: cell-based, human; details: 2 mM LLOMe, indicated time points
[2] = test system: mTOR and Raptor on lysosomes; assay: LysoIP quantitative DIA proteomics (LC/MS/MS) of lysosomes from HEK293T cells; format: cell-based, human; details: 1 mM LLOMe for 30 min
Description: Three groups of proteins are labeled (ESCRT components in green, autophagy factors in blue and stress granule components in purple). […] The dotted orange line indicates the significance cut-off (P<0.05). […] The significant increased proteins in LysoIP LC/MS/MS were analyzed by STRING functional protein association networks. […] Strength, Log 10(observed/expected) describes how large the enrichment effect is. […] TMEM192-2×FLAG, control. […] U20S cells Were treated with Earle's Balanced Salt Solution (EBSS), 4 mM LOMe, 2 mM LLOMe, 200 μM GPN, or 400 μg/mL silica for 30 min. White masks, algorithm-defined cell boundaries (primary objects); red masks, computer-identified G3BP1 puncta (target objects). […] U2OS cells Were treated with 2 mM LLOMe for 30 min and stained for endogenous G3BP1. Scale bar, 5 μm. […] Green masks, computer-identified G3BP1 puncta. […] Red masks, computer-identified Galectin-3 puncta. FIG. 1G Immunoblot analysis of eIF2α (S51) phosphorylation in U2OS cells treated with 2 mM LLOMe for 30 min and followed by 1 h washout. […] The level of phosphorylation of eIF2α (S51) is quantified based on three independent experiments. […] Scale bar, 5/10 μm. […] The level of ATF4 and phosphorylation of eIF2α (S51) and 4EBP1 (S65) are quantified based on three independent experiments. Ctrl, control (untreated cells). […]

SMILES: COC(=O)[C@H](CC(C)C)NC(=O)[C@@H](N)CC(C)C [LLOMe, L-leucyl-L-leucine methyl ester]
- SG formation (G3BP1 puncta) [1]: SGs Were detected
- NUFIP2 localisation upon lysosomal damage (NUFIP2): NUFIP2 translocated from the nucleus into the cytosol
- ATF4 expression (ATF4): increased ATF4 expression over time
- mTOR and Raptor association with lysosomes (mass spectrometry) [2]: mTOR and Raptor dissociate from lysosomes
